biological target: T1, human PDE2A3 enzyme (Homo sapiens, UniProt O00408); assay: PDE enzyme inhibitory assay (SPA, [3H]cGMP substrate); type: biochemical; conditions: compound 1 μM, substrate [3H]cGMP 77 nM, read-out: inhibitory rate (%) (1 μM)
T1 construct: Human PDE2A3 full-length gene was transduced into Sf9; His-tag; made in house; host or cells: Sf9 insect cells
Protocol: PDE Enzyme Inhibitory Assay
Human PDE2A3 full-length gene was transduced into Sf9, and human PDE2A3 enzyme was purified by His-tag affinity column and gel filtration. The enzyme was stored at −70° C. until use. PDE activity was measured by using a SPA (Scintillation Proximity Assay) (GE Healthcare). To evaluate the inhibitory activity of the compound, 10 μl of serial diluted compounds were reacted with 20 μl of PDE enzyme in assay buffer (50 mM HEPES-NaOH, 8.3 mM MgCl2, 1.7 mM EGTA, 0.1% BSA (pH 7.4)) for 30 min at room temperature. Final concentration of DMSO in the reaction solution was 1%. Compounds were tested in duplicate in 96-well half-area plates (Corning) or 384-well OptiPlate (PerkinElmer). To start the reaction, 10 μl of substrate [^3H]cGMP (final concentration 77 nM, PerkinElmer) was added to a total volume of 40 μl. After reaction for 60 min at room temperature, 20 μl of 20 mg/mL yttrium SPA beads containing zinc sulfate was added to terminate the reaction. After being settled for further 1 hour, the assay plates were counted in a scintillation counter (PerkinElmer) to allow calculation of inhibition rate. Inhibition rate was calculated on the basis of 0% control wells with enzyme and DMSO, and 100% control wells without enzyme.

T1 sequence (O00408 whole entry): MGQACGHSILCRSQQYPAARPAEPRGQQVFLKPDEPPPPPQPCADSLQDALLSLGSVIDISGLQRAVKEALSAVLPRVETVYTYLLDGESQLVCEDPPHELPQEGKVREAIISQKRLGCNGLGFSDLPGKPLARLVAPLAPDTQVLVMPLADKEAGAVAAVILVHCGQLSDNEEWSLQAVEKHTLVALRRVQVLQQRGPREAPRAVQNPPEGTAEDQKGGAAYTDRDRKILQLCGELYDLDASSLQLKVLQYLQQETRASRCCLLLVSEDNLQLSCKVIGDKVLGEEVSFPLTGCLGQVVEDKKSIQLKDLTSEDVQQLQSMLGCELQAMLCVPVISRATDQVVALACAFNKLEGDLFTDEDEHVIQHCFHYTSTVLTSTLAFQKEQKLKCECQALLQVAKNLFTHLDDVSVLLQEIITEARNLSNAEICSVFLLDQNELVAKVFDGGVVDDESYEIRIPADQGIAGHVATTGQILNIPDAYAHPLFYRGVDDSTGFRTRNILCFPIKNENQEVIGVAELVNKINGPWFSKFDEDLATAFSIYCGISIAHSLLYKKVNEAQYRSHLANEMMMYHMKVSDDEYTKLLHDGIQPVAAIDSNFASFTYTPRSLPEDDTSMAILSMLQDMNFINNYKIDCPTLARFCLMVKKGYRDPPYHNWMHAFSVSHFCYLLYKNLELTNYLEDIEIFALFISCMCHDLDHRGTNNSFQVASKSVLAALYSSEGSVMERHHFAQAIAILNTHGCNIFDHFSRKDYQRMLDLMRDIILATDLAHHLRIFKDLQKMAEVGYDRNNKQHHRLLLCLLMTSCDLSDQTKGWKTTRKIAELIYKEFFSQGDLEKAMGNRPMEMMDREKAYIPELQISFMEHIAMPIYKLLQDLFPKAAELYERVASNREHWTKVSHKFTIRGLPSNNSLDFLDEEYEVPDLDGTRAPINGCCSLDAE

Row | Structure (SMILES) | inhibition at 1 µM [%]
1 | COC[C@@H](NC(=O)c1cc(=O)[nH]c(-c2ncc(OC)cc2F)n1)c1ccc(OC(F)(F)F)c(F)c1 [Example 178, 2-(3-fluoro-5-methoxypyridin-2-yl)-N-((1S)-1-(3-fluoro-4-(trifluoromethoxy)phenyl)-2-methoxyethyl)-6-oxo-1,6-dihydropyrimidine-4-carboxamide] | 99
2 | CO[C@H]1CCN(c2cncc(C(=O)N[C@@H](c3ccc(OC(F)(F)F)c(F)c3)C(C)(C)O)n2)C1 [Example 163, N-((1S)-1-(3-fluoro-4-(trifluoromethoxy)phenyl)-2-hydroxy-2-methylpropyl)-6-((3S)-3-methoxypyrrolidin-1-yl)pyrazine-2-carboxamide] | 94
3 | COC[C@@H](NC(=O)c1cc(=O)[nH]c(C2=CCCC2)n1)c1ccc(OC(F)(F)F)cc1 [Example 115, 2-(cyclopent-1-en-1-yl)-N-((1S)-2-methoxy-1-(4-(trifluoromethoxy)phenyl)ethyl)-6-oxo-1,6-dihydropyrimidine-4-carboxamide] | 100
4 | COC[C@@H](NC(=O)c1cc(=O)[nH]c(C(C)(C)C)n1)c1ccc(OC(F)(F)F)c(F)c1 [Example 80, 2-tert-butyl-N-((1S)-1-(3-fluoro-4-(trifluoromethoxy)phenyl)-2-methoxyethyl)-6-oxo-1,6-dihydropyrimidine-4-carboxamide] | 94
5 | COC[C@@H](NC(=O)c1cc(=O)[nH]c(N2CC[C@H](OC(C)C)C2)n1)c1ccc(OC(F)(F)F)cc1 [Example 67, 2-((3S)-3-isopropoxypyrrolidin-1-yl)-N-((1S)-2-methoxy-1-(4-(trifluoromethoxy)phenyl)ethyl)-6-oxo-1,6-dihydropyrimidine-4-carboxamide] | 100
6 | COC[C@@H](NC(=O)c1cc(=O)[nH]c(C2(C)CC2)n1)c1ccc(OC(F)(F)F)c(F)c1 [Example 103, N-((1S)-1-(3-fluoro-4-(trifluoromethoxy)phenyl)-2-methoxyethyl)-2-(1-methylcyclopropyl)-6-oxo-1,6-dihydropyrimidine-4-carboxamide] | 108
7 | CC(C)(O)[C@@H](NC(=O)c1cc(=O)[nH]c(C2=CCCC2)n1)c1ccc(OC(F)(F)F)c(F)c1 [Example 114, 2-(cyclopent-1-en-1-yl)-N-((1S)-1-(3-fluoro-4-(trifluoromethoxy)phenyl)-2-hydroxy-2-methylpropyl)-6-oxo-1,6-dihydropyrimidine-4-carboxamide] | 104
8 | COC[C@@H](NC(=O)c1cc(=O)[nH]c(N(C)C)n1)c1ccc(OC(F)(F)F)c(F)c1 [Example 33, 2-(dimethylamino)-N-((1S)-1-(3-fluoro-4-(trifluoromethoxy)phenyl)-2-methoxyethyl)-6-oxo-1,6-dihydropyrimidine-4-carboxamide] | 99
9 | COC[C@@H](NC(=O)c1cc(=O)[nH]c(-c2ccsc2)n1)c1ccc(OC(F)(F)F)c(F)c1 [Example 120, N-((1S)-1-(3-fluoro-4-(trifluoromethoxy)phenyl)-2-methoxyethyl)-6-oxo-2-(3-thienyl)-1,6-dihydropyrimidine-4-carboxamide] | 103
10 | COC[C@@H](NC(=O)c1cc(=O)[nH]c(C2CC2)n1)c1ccc(OC(F)(F)F)c(F)c1 [Example 81, 2-cyclopropyl-N-((1S)-1-(3-fluoro-4-(trifluoromethoxy)phenyl)-2-methoxyethyl)-6-oxo-1,6-dihydropyrimidine-4-carboxamide] | 93
11 | COC[C@@H](NC(=O)c1cc(=O)[nH]c(-c2cccs2)n1)c1ccc(OC(F)(F)F)c(F)c1 [Example 107, N-((1S)-1-(3-fluoro-4-(trifluoromethoxy)phenyl)-2-methoxyethyl)-6-oxo-2-(2-thienyl)-1,6-dihydropyrimidine-4-carboxamide] | 97
12 | CCOc1cnc(-c2nc(C(=O)N[C@H](COC)c3ccc(OC(F)(F)F)c(F)c3)cc(=O)[nH]2)c(OCC)c1 [Example 187, 2-(3,5-diethoxypyridin-2-yl)-N-((1S)-1-(3-fluoro-4-(trifluoromethoxy)phenyl)-2-methoxyethyl)-6-oxo-1,6-dihydropyrimidine-4-carboxamide] | 105
13 | CC#Cc1nc(C(=O)N[C@H](COC)c2ccc(OC(F)(F)F)c(F)c2)cc(=O)[nH]1 [Example 111, N-((1S)-1-(3-fluoro-4-(trifluoromethoxy)phenyl)-2-methoxyethyl)-6-oxo-2-(prop-1-yn-1-yl)-1,6-dihydropyrimidine-4-carboxamide] | 94
14 | CC(C)(O)[C@@H](NC(=O)c1cc(=O)[nH]c(C2CC2)n1)c1ccc(OC(F)(F)F)c(F)c1 [Example 96, 2-cyclopropyl-N-((1S)-1-(3-fluoro-4-(trifluoromethoxy)phenyl)-2-hydroxy-2-methylpropyl)-6-oxo-1,6-dihydropyrimidine-4-carboxamide] | 94
15 | COC[C@@H](NC(=O)c1cc(=O)[nH]c(-c2ccco2)n1)c1ccc(OC(F)(F)F)c(F)c1 [Example 121, N-((1S)-1-(3-fluoro-4-(trifluoromethoxy)phenyl)-2-methoxyethyl)-2-(2-furyl)-6-oxo-1,6-dihydropyrimidine-4-carboxamide] | 95
16 | COC[C@@H](NC(=O)c1cc(=O)[nH]c(-c2ncc(C3CC3)cc2F)n1)c1ccc(OC(F)(F)F)c(F)c1 [Example 185, 2-(5-cyclopropyl-3-fluoropyridin-2-yl)-N-((1S)-1-(3-fluoro-4-(trifluoro-methoxy)phenyl)-2-methoxyethyl)-6-oxo-1,6-dihydropyrimidine-4-carboxamide] | 94
17 | CC(C)(O)C(NC(=O)c1cc(=O)[nH]c(N2CCCC2)n1)c1ccc(OC(F)(F)F)c(F)c1 (centres unmarked) [Example 62, N-(1-(3-fluoro-4-(trifluoromethoxy)phenyl)-2-hydroxy-2-methylpropyl)-6-oxo-2-(pyrrolidin-1-yl)-1,6-dihydropyrimidine-4-carboxamide] | 99
18 | COC[C@@H](NC(=O)c1cc(=O)[nH]c(C2(C)CC2)n1)c1ccc(OC(F)(F)F)cc1 [Example 153, N-((1S)-2-methoxy-1-(4-(trifluoromethoxy)phenyl)ethyl)-2-(1-methylcyclopropyl)-6-oxo-1,6-dihydropyrimidine-4-carboxamide] | 100
19 | COC[C@@H](NC(=O)c1cc(=O)[nH]c(-c2ccccn2)n1)c1ccc(OC(F)(F)F)c(F)c1 [Example 88, N-((1S)-1-(3-fluoro-4-(trifluoromethoxy)phenyl)-2-methoxyethyl)-6-oxo-2-(pyridin-2-yl)-1,6-dihydropyrimidine-4-carboxamide] | 92
20 | COC[C@@H](NC(=O)c1cc(=O)[nH]c(N2CC[C@H](OC)C2)n1)c1ccc(OC(F)(F)F)cc1 [Example 45, 2-((3S)-3-methoxypyrrolidin-1-yl)-N-((1S)-2-methoxy-1-(4-(trifluoromethoxy)phenyl)ethyl)-6-oxo-1,6-dihydropyrimidine-4-carboxamide] | 97
21 | COC[C@@H](NC(=O)c1cc(=O)[nH]c(-c2ncc(OC(F)F)cc2F)n1)c1ccc(OC(F)(F)F)c(F)c1 [Example 186, 2-(5-(difluoromethoxy)-3-fluoropyridin-2-yl)-N-((1S)-1-(3-fluoro-4-(trifluoro-methoxy)phenyl)-2-methoxyethyl)-6-oxo-1,6-dihydropyrimidine-4-carboxamide] | 92
22 | COC[C@@H](NC(=O)c1cc(=O)[nH]c(-c2ncc(C3CC3)cc2OC)n1)c1ccc(OC(F)(F)F)c(F)c1 [Example 189, 2-(5-cyclopropyl-3-methoxypyridin-2-yl)-N-((1S)-1-(3-fluoro-4-(trifluoro-methoxy)phenyl)-2-methoxyethyl)-6-oxo-1,6-dihydropyrimidine-4-carboxamide] | 99
23 | COC[C@@H](NC(=O)c1cc(=O)[nH]c(N2CC3CC(C2)O3)n1)c1ccc(OC(F)(F)F)c(F)c1 [Example 73, N-((1S)-1-(3-fluoro-4-(trifluoromethoxy)phenyl)-2-methoxyethyl)-2-(6-oxa-3-azabicyclo[3.1.1]hept-3-yl)-6-oxo-1,6-dihydropyrimidine-4-carboxamide] | 99
24 | COCC(NC(=O)c1cc(=O)[nH]c(C2=CCCC2)n1)c1ccc(-n2cccn2)c(F)c1 (centres unmarked) [Example 129, 2-(cyclopent-1-en-1-yl)-N-(1-(3-fluoro-4-(1H-pyrazol-1-yl)phenyl)-2-methoxyethyl)-6-oxo-1,6-dihydropyrimidine-4-carboxamide] | 98
25 | COC[C@@H](NC(=O)c1cc(=O)[nH]c(-c2ccc(OC)cn2)n1)c1ccc(OC(F)(F)F)c(F)c1 [Example 105, N-((1S)-1-(3-fluoro-4-(trifluoromethoxy)phenyl)-2-methoxyethyl)-2-(5-methoxypyridin-2-yl)-6-oxo-1,6-dihydropyrimidine-4-carboxamide] | 104
26 | COC[C@@H](NC(=O)c1cc(=O)[nH]c(C2=CCCC2)n1)c1ccc(OC(F)(F)F)c(F)c1 [Example 83, 2-(cyclopent-1-en-1-yl)-N-((1S)-1-(3-fluoro-4-(trifluoromethoxy)phenyl)-2-methoxyethyl)-6-oxo-1,6-dihydropyrimidine-4-carboxamide] | 98

Source: patent US20160264536A1, “HETEROCYCLIC COMPOUND” (Takeda Pharmaceutical Company Limited, priority 2013, published 2016)
